Results: US20250176602A1, “Composition for Proliferation of Bacteroides uniformis in the Intestinal Tract” (Asahi Group Holdings, Ltd., priority 2019, published 2025)

Legend:
[1] = tested on: Bacteroides uniformis; test: Proliferation of Bacteroides uniformis in the intestinal tract, quantification PCR of feces (Example 1); format: in vivo, human; conditions: about 200 mg α-cyclodextrin per day, oral tablets; 8w vs 0w; p<0.05
Protocol: As test subjects, 21 healthy males at the ages of 20 to 49 who have exercise habits of conducting exercise with an intensity of 5 METs or more for 30 minutes or more once or twice a week and who can continue the exercise habits during the test period as well were selected. Among the 21 test subjects, 10 test subjects were selected as an α-cyclodextrin (αCD) intake group, and the remaining 11 test subjects were selected as a placebo group. The test subjects themselves were not informed who belonged to which group. Test Supplements (tablets) having compositions described in Table 1 below were used. One tablet of the test supplements was of about 250 mg. […] The intake period for the test supplements was set to 9 weeks, and change in gut flora was evaluated, a questionnaire on fatigue feeling was conducted, and change in travel time was evaluated, before the start of the intake, after 4-week intake, and after 8-week intake. […] DNA was extracted from the collected feces by a conventional method, and the absolute number of Bacteroides uniformis in the intestinal tract was evaluated by conducting quantification PCR (probe method) with a conventional method using a forward primer, a reverse primer, and a probe targeting a sequence specific to the 16Sr DNA sequence region of Bacteroides uniformis with reference to the description of Anaerobe (2011), 17, 64-68, Jia Tong et al.

[2] = Exercise performance test, 10 km SPIN CYCLE travel time (Example 6); format: in vivo, human; conditions: after 8-week intake, about 1000 mg/day; p<0.05
Protocol: As the test subjects, 86 healthy males at the ages of 20 to 49 who have exercise habits of conducting exercise with an intensity of 5 METs or more for 30 minutes or more once or twice a week and who can continue the exercise habits during the test period as well were selected.
Among the 86 test subjects, 43 test subjects were selected as an α-cyclodextrin (αCD) intake group, and the remaining 43 test subjects were selected as a placebo group. The test subjects themselves were not informed who belonged to which group.
Test Supplements (tablets) having compositions described in Table 4 below were used. One tablet of the test supplements was of about 600 mg.
Each test subject of the αCD intake group and the placebo group was asked to take in 4 tablets of the above test supplements once a day at any timing. That is, each test subject of the α-cyclodextrin intake group was asked to take in about 1000 mg of α-cyclodextrin per day.
The intake period for the test supplements was set to 8 weeks, and the heart rate during exercise was measured, before the start of the intake, after 4-week intake, and after 8-week intake to evaluate change in heart rate. In addition, a questionnaire on fatigue feeling was conducted before the start of the intake of the test supplements and after 8-week intake, and change in travel time was evaluated. […]

For `OC[C@H]1O[C@@H]2O[C@H]3[C@H](O)[C@@H](O)[C@@H](O[C@H]4[C@H](O)[C@@H](O)[C@@H](O[C@H]5[C@H](O)[C@@H](O)[C@@H](O[C@H]6[C@H](O)[C@@H](O)[C@@H](O[C@H]7[C@H](O)[C@@H](O)[C@@H](O[C@H]1[C@H](O)[C@H]2O)O[C@@H]7CO)O[C@@H]6CO)O[C@@H]5CO)O[C@@H]4CO)O[C@@H]3CO` [α-cyclodextrin], the “bacterial cell number of Bacteroides uniformis in the intestinal tract, after 8-week intake as compared with before intake” value [1] was “about 2.5 times” and the “travel time for 10 km, change vs before intake, compared with placebo group” value [2] was “significantly less”.
